Data published in patent US20090318494A1, “PYRAZOLO[3,4-B]PYRIDINE COMPOUNDS, AND THEIR USE AS PDE4 INHIBITORS” (Glaxo Group Limited, priority 2006, published 2009).
Counter-ions that a name gives are not always drawn. Values belong to the compound of their own block, whether it stands above or below them.

Tests used:
COPD patients = settings: cited from earlier work
[1] = biological target: T1, PDE4B (human recombinant) (Homo sapiens, UniProt Q07343); test: Inhibition of PDE4B activity: IMAP Fluorescence Polarisation (FP) assay; type: biochemical; settings: FP assay or generally similar assay; each limit ±about 0.5; n=1 or average of 2 or more readings; read-out: PDE4B inhibitory activities, pIC50 (converted)
T1 construct: made in house; host or cells: Saccharomyces cerevisiae strain GL62 (named as a possible source, as described in WO 94/20079)
Description: The ability of compounds to inhibit catalytic activity at PDE4B (human recombinant) or PDE4D (human recombinant) can optionally be determined by IMAP Fluorescence Polarisation (FP) assay (IMAP Explorer kit, available from Molecular Devices Corporation, Sunnydale, Calif., USA; Molecular Devices code: R8062) in 384-well format.
The IMAP FP assay is able to measure PDE activity in an homogenous, non-radioactive assay format. The FP assay uses the ability of immobilised trivalent metal cations, coated onto nanoparticles (tiny beads), to bind the phosphate group of Fl-AMP that is produced on the hydrolysis of fluorescein-labelled (Fl) cyclic adenosine mono-phosphate (Fl-cAMP) to the non-cyclic Fl-AMP form. […] Binding of Fl-AMP product to the beads (coated with the immobilised trivalent cations) slows the rotation of the bound Fl-AMP and leads to an increase in the fluorescence polarisation ratio of parallel to perpendicular light. Inhibition of the PDE reduces/inhibits this signal increase.
Test compounds (small volume, e.g. ca. 0.5 to 1 microlitres (ul), suitably ca. 0.5 ul, of solution in DMSO) are preincubated at ambient temperature (room temperature, e.g. 19-23° C.) in black 384-well microtitre plates (supplier: NUNC, code 262260) with PDE enzyme in 10 mM Tris-HCl buffer pH 7.2, 10 mM MgCl2, 0.1% (w/v) bovine serum albumin, and 0.05% NaN3 for 10-30 minutes. The enzyme level is set by experimentation so that reaction is linear throughout the incubation. Fluorescein adenosine 3′,5′-cyclic phosphate (from Molecular Devices Corporation, Molecular Devices code: R7091) is added to give about 40 nM final concentration (final assay volume usually ca. 20-40 ul, suitably ca. 20 ul). Plates are mixed on an orbital shaker for 10 seconds and incubated at ambient temperature for 40 minutes. IMAP binding reagent (as described above, from Molecular Devices Corporation, Molecular Devices code: R7207) is added (60 ul of a 1 in 400 dilution in binding buffer of the kit stock solution) to terminate the assay. Plates are allowed to stand at ambient temperature for 1 hour. The Fluorescence Polarisation (FP) ratio of parallel to perpendicular light is measured using an Analyst™ plate reader (from Molecular Devices Corporation). For inhibition curves, 10 concentrations (e.g. 1.5 nM-30 uM) of each compound are assayed. Curves are analysed using ActivityBase and XLfit (ID Business Solutions Limited, 2 Ocean Court, Surrey Research Park, Guildford, Surrey GU2 7QB, United Kingdom). Results are expressed as pIC50 values.
In the FP assay, reagents can be dispensed using Multidrop™ (available from Thermo Labsystems Oy, Ratastie 2, PO Box 100, Vantaa 01620, Finland).

[2] = tested on: atopic dermatitis patients; settings: cited from earlier work

T1 sequence (Q07343 1-564 isoform Q07343-2): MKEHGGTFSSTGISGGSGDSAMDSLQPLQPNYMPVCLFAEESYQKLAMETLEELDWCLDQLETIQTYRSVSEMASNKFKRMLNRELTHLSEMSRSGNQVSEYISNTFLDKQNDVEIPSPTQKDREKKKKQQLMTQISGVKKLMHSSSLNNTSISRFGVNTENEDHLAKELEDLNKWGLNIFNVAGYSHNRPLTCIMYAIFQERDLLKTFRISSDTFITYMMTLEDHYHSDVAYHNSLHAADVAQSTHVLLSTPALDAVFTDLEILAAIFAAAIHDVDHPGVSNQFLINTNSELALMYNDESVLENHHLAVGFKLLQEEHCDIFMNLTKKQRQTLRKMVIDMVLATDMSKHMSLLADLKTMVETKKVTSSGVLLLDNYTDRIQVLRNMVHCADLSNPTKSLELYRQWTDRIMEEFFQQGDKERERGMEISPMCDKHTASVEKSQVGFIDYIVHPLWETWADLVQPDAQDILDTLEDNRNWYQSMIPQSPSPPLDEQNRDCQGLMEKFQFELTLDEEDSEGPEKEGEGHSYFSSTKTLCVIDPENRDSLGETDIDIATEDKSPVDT

IC50 [1]: 200 to 1580 pM
SMILES: CCc1nc2c(cnn2CC)c(NC2CCOCC2)c1CNC(=O)CCCCCCCN1CCC[C@H]1COC [Example 16, N-{[1,6-diethyl-4-(tetrahydro-2H-pyran-4-ylamino)-1H-pyrazolo[3,4-b]pyridin-5-yl]methyl}-8-{(2S)-2-[(methyloxy)methyl]-1-pyrrolidinyl}octanamide trifluoroacetate]

IC50 [1]: 200 to 1580 pM
SMILES: CCc1nc2c(cnn2CC)c(NC2CCOCC2)c1CNC(=O)CCCCCCCN1CCC[C@@H]1COC [Example 15, N-{[1,6-diethyl-4-(tetrahydro-2H-pyran-4-ylamino)-1H-pyrazolo[3,4-b]pyridin-5-yl]methyl}-8-{(2R)-2-[(methyloxy)methyl]-1-pyrrolidinyl}octanamide trifluoroacetate]

IC50 [1]: 200 to 1580 pM
SMILES: CCc1nc2c(cnn2CC)c(NC2CCN(C(N)=O)CC2)c1CNC(=O)CCCCCCCN1CCC[C@@H]1COC [Example 7, 4-[(1,6-diethyl-5-{[(8-{(2R)-2-[(methyloxy)methyl]-1-pyrrolidinyl}octanoyl)amino]methyl}-1H-pyrazolo[3,4-b]pyridin-4-yl)amino]-1-piperidinecarboxamide trifluoroacetate]

IC50 [1]: 200 to 1580 pM
SMILES: CCc1nc2c(cnn2CC)c(NC2CCN(C(N)=O)CC2)c1CNC(=O)CCCCCCCN1CCC[C@H]1COC [Example 8, 4-[(1,6-diethyl-5-{[(8-{(2S)-2-[(methyloxy)methyl]-1-pyrrolidinyl}octanoyl)amino]methyl}-1H-pyrazolo[3,4-b]pyridin-4-yl)amino]-1-piperidinecarboxamide trifluoroacetate]

The next lines start with the compound.

SMILES: O=C(Nc1c(Cl)cncc1Cl)c1ccc(OC(F)F)c(OCC2CC2)c1 [roflumilast]
FEV1 in COPD patients (COPD patients): appears to show small improvements in FEV1

SMILES: COc1ccc([C@]2(C#N)CC[C@@H](C(=O)O)CC2)cc1OC1CCCC1 [cilomilast]
forced expiratory volume in 1s (FEV1) (COPD patients; 15 mg orally twice daily): appears to improve forced expiratory volume in 1s (FEV1) | antiinflammatory effects in COPD patients (COPD patients): appears to have antiinflammatory effects

SMILES: Nc1nc2c([nH]1)c(=O)n(CC1CC1)c(=O)n2CC1CC1 [cipamfylline]
efficacy in the treatment of atopic dermatitis patients versus hydrocortisone 17-butyrate (0.1%) cream ([2]; 0.15% cream): significantly less effective than hydrocortisone 17-butyrate (0.1%) cream | efficacy in the treatment of atopic dermatitis patients versus vehicle ([2]; 0.15% cream): significantly more effective than vehicle

SMILES: COc1ccc(C2CNC(=O)NC2)cc1O[C@H]1C[C@@H]2CC[C@H]1C2 [CP80,633]
inflammatory parameters in atopic dermatitis patients ([2]; 0.5% ointment, twice daily topical application): reductions of inflammatory parameters
